Measurements taken from publication PMC5847048 (Psychopharmacology, 2017).
Where two headings read alike, the source gives them in different places.

How the values were obtained:
[1] = tested on: aged mice (22–24 months old); test: Radial maze working memory task; type: in vivo, mouse
Procedure: In the radial arm maze task, treatments were administered subcutaneously (s.c.) once a day 60 min prior to testing from the 2 days of habituation to the 12 days of memory testing.
The radial maze (Imetronic system, Pessac, France) was fully automated and enabled by video-tracking automatic testing and recording. Briefly, each mouse was separately assigned to six adjacent arms which were grouped into three pairs (A, B, C). These three pairs were presented repeatedly among the successive trials of each testing session. The location of the food reward varied in each pair according to an alternation rule among successive trials. Namely, among the two arms opened in a specific trial, the food was inserted in the arm which was not visited in the previous trial within the same pair. The mouse must therefore remember which of the two arms was visited in a specific trial until next presentation of the same pair, and so on in order to alternate its choice among successive presentations of any pair. At the beginning of each daily session, the mouse was placed in the central platform of the radial maze with all arms closed. One pair of arms only was opened at the beginning of each trial, and the mouse was required to visit one arm. The door of the non-chosen arm was closed as soon as the mouse reached the end of the chosen arm. The mouse was allowed to run back to the central platform of his own accord, and then, the door of the chosen arm was closed. The mouse remained in the central platform until the following trial (intertrial interval 10 s). Since three pairs were concurrently used, three specific arm visits must be kept in memory by the mouse until their utilization by using short-term working memory. After 2 days of free exploration in the maze (habituation), mice were submitted to 12 consecutive testing sessions: one session of 23 trials (3 “acquisition-only trials,” one by pair, and 20 “acquisition and test trials”) per day, i.e., a total of 276 trials (240 test trials).
Each session consisted of alternate presentations of pairs A, B, and C. The first three trials with each pair were acquisition trials (both arms rewarded). Each of the following trials was at the same time an acquisition trial (for the following trial with the same pair) and a test trial (for the arm visit made during the preceding trial with the same pair); the rewarded arm was the one that has not been visited on the preceding trial with the same pair. Memory demand varied across successive trials according to the retention interval RI (i.e., the number of intervening trials with other pairs between two successive presentations of the same pair). The retention interval for one specific arm visit (e.g., within pair A) depends on the number of concurring trials (i.e., with pairs B and C) occurring till next trial with the same pair (A). Indeed, such a variable amount of interposed trials proportionally increases the delay between acquisition and test and may also generate retroactive interference. There are five levels of retention interval: from 0, corresponding to “no interposed pair,” to 4, corresponding to a sequence of four interposed trials between n-1 and n trials.
During habituation, the time needed for visiting all six arms per session day was measured. During memory testing, memory performance was evaluated according to the percentage of correct alternation responses between successive trials with the same pair in three different manners.

middle-aged mice = tested on: middle-aged mice; design: method as in Giralt et al. [2017]; conditions: ref Giralt et al. [2017]; cited from earlier work
normal adult mice = tested on: normal adult mice; design: method as in Bretin et al. [2017]; conditions: acute administration, ref Bretin et al. [2017]; cited from earlier work
mice = test: Primary observation (Irwin) test; conditions: S 47445 alone, 3 to 100 mg/kg p.o.; mice
From the text: Male Rj: C57BL/6J mice (Elevage Janvier, 53940 Le Genest-Saint-Isle, France), 23–27 g body weight range, were stabilized for at least 5 days after delivery in macrolon cages in groups of 10 (housing period) (25 × 19 × 13 cm) and then of 4 (starting the day before the test and during the test) in macrolon cages (25 × 19 × 13 or 32 × 13 × 14 cm) on wood litter with free access to food and water.
Between one and three treated groups were compared with the same control at any one time. […] In order to keep the same conditions, all the mice receiving a single treatment also received another administration with vehicle.
Behavioral modifications, physiological and neurotoxicity symptoms, and rectal temperature were recorded according to a standardized observation grid derived from that of Irwin. The grid contains the following items: death*, convulsions*, tremor*, Straub tail*, altered activity, excitation, jumping*, abnormal gait* (rolling, tip-toe), motor incoordination*, altered muscle tone, loss of grasping, akinesia, catalepsy, loss of traction, writhing*, piloerection*, stereotypies* (sniffing, chewing, head movements), head-twitches*, scratching*, altered respiration*, aggression*, altered fear, altered reactivity to touch, ptosis, exophthalmia, loss of righting reflex, loss of corneal reflex, analgesia, defecation/diarrhea, salivation, lacrimation, and rectal temperature (hypothermia/hyperthermia).

[2] = tested on: aged mice (18–19 months old); test: Sequential/spontaneous alternation (SA) working memory task in T-maze; type: in vivo, mouse; conditions: ITI 90 s
Procedure: Treatments were administered per os daily for nine consecutive days for studies involving the CSD and SA tasks. The 8th and the 9th oral administrations were given 60 min before acquisition and test phases in the CSD task, or before the training and the test sessions in the SA task.
The spontaneous alternation (SA) task was performed in independent groups of mice as regards to the CSD and radial maze tasks. The SA task allows investigation of aged-induced working memory impairments (Vandesquille et al. [2011]). In this task, mice are submitted to a series of successive choices in a T-maze. To alternate from trial to trial, animals have to remember at each choice (except the first one) only the previous trial and to reset the interfering information from trial to trial over a series. This resetting mechanism is a main aspect of working memory (Aggleton et al. [1986]; Béracochéa and Jaffard, [1987]; Kesner [2005]).
Behavioral tests were conducted in a gray Plexiglas T-maze. Stem and arms are 35 cm long, 15 cm wide, and 10 cm high. The starting box (10 cm × 12 cm) and each goal arm are separated from the central alley by a vertical sliding door, with opening and closing monitored by a computer. Photoelectric cells allow recording of both the choice of the goal arm (left or right) and the latency (in seconds) that elapsed between the opening of the starting box and the closing of the goal box. The T-maze is located at the center of a room with various allocentric cues (white or black or striped card boards) located on the wall 1 m above the apparatus.
Animals were not food deprived, and no food reinforcement was used. Animals were first submitted to a habituation phase consisting of two free exploration sessions of 10 min each, over two consecutive days (one session per day) in the apparatus with all doors opened. At the end of the habituation phase, all animals were submitted to a training phase, involving a series of seven successive trials separated by a 30-s intertrial interval (ITI). The training phase was aimed at familiarizing the animals with the opening and closing of the doors.
For the training session, animals were submitted to a sequence of seven successive identical trials. At the beginning of a trial, mice were placed in the starting box and after a confinement period (30 s, predefined ITI), the door to the stem was opened. When the mouse entered one of the goal arms, the door was closed and the chosen arm was recorded. After a 30-s confinement period in the chosen arm, the mouse was gently returned to the starting box for a second trial, identical to the first one. To avoid olfactory cues in the apparatus, visible traces of urine were removed and the general procedure was implemented as in the training phase, except that the ITI was extended to 90 s and animals were submitted to a series of […] successive trials. […] Moreover, an 8th trial was added to the series which was separated from the 7th one by a 5-s ITI. […] The alternation score (in percentage) was used as an index of memory performance. An alternation is defined as a visit in a given arm followed by a visit into the other arm. The successive sequence of visits for the seven first trials determines the level of alternation. A percentage of alternation was calculated: number of alternations performed/number maximal of alternation. This percentage is calculated for each mouse.
For the sequential alternation task, mean and standard errors of the mean (SEM) were calculated for each group of treatment. In addition to % alternation drawn over the seven trials of the series, behavioral performances were also expressed in percentage of alternation drawn from blocks of two consecutive trials (block 1: trials 2 + 3; block 2: trials 4 + 5; block 3: trials 6 + 7). The analyses per trial blocks allowed evaluation of proactive interference over the series (Vandesquille et al. [2011], [2013]). Statistical analyses were performed using the Statview 5.0 software. […]

rats = tested on: rats; design: method as in Bretin et al. [2017]; conditions: acute administration, ref Bretin et al. [2017]; cited from earlier work
aged rats = tested on: aged rats; design: method as in Calabrese et al. [2017]; conditions: dorsal hippocampus and prefrontal cortex of aged rats; ref Calabrese et al. [2017]; cited from earlier work
[3] = Procedure: The sampling times were 30 min, 1, 2, 4, and 6 h.
Plasma was extracted from the blood sample by centrifugation (+ 4 °C, 1500g, 10 min) and stored at − 80 °C. Then, plasma samples were sent in dry ice to Celerion (Switzerland) for the pharmacokinetic analysis.

[4] = S 47445 0.01 mg/kg p.o. alone, n = 12
[5] = S 47445 0.03 mg/kg p.o. alone, n = 12
[6] = S 47445 0.3 mg/kg p.o. alone, n = 12
[7] = S 47445 1.0 mg/kg p.o. alone, n = 12
[8] = S 47445 0.3 mg/kg p.o. alone, repeated (day 10), blood, middle-aged mice

O=C1c2cc3nnn(CCc4cccc(F)c4)c(=O)c3cc2OCN1C1CC1 [S 47445]
Overall memory performance (mean percentage of correct responses over 12 days) ([1]; S 47445 0.3 mg/kg s.c. once a day, aged mice, versus aged vehicle (p ≤ 0.05)): better memory performance as compared to aged vehicle-treated mice | Performance as a function of retention interval (RI 0–4) versus chance level ([1]; S 47445 0.3 mg/kg s.c., aged mice (at least p ≤ 0.01)): remained significantly above chance level regardless the RI level | Performance as a function of proactive interference ([1]; S 47445 0.3 mg/kg s.c., aged mice, data not shown): ameliorated performance whatever the level of proactive interference | Performance as a function of retention interval (RI 0–4) versus chance level ([1]; all other groups (S 47445 0.1 and 1 mg/kg s.c.), aged mice): dropped to chance level above R1 = 1 | In vivo CA3-CA1 long-term potentiation and structural synaptic changes (middle-aged mice): rescues in vivo CA3-CA1 long-term potentiation and structural synaptic changes | Working-like memory in spontaneous alternation task (normal adult mice): dose-related improvement | Observable effects in the Irwin test (mice): devoid of any observable effect | Alternation score, 3rd block of trials (trials 6 + 7) [2, 4]: 45.833 ± 9.650 n = 12% | Alternation score, seven first trials of the series [2, 4]: 59.722 ± 2.477 n = 12% | Alternation score, 3rd block of trials (trials 6 + 7) [2, 5]: 50.000 ± 8.704 n = 12% | Alternation score, seven first trials of the series [2, 5]: 61.11 ± 4.738 n = 12% | Alternation score, 3rd block of trials (trials 6 + 7) ([2]; S 47445 0.1 mg/kg p.o. alone, n = 12): 70.833 ± 7.432 n = 12% | Alternation score, seven first trials of the series ([2]; S 47445 0.1 mg/kg p.o. alone, n = 12, 0.1 mg/kg): alternated significantly above vehicles | Alternation score, seven first trials of the series ([2]; S 47445 0.1 mg/kg p.o. alone, n = 12, listed as S47445, 0.1 mg/kg): 65.278 ± 3.815 n = 12 % | Alternation score, 3rd block of trials (trials 6 + 7) [2, 6]: 50.000 ± 8.704 n = 12% | Alternation score, seven first trials of the series [2, 6]: 61.111 ± 2.369 n = 12% | Alternation score, 3rd block of trials (trials 6 + 7) [2, 7]: 58.333 ± 8.333 n = 12% | Alternation score, seven first trials of the series [2, 7]: 59.722 ± 3.217 n = 12% | Episodic-like memory in object recognition (rats): dose-related improvement | Neurotrophic effects (aged rats): displayed neurotrophic effects | Mean AUClast [% CV] [3, 8]: 32.1 [7.83] ng h/mL | Mean Cmax [% CV] [3, 8]: 10.2 [13.7] ng/mL | Median Tmax [range] [3, 8]: 1.5 [1–4] h | T1/2z [% CV] [3, 8]: 2.09 [32.0] h | Blood concentration at the active doses used in the pharmacological experiments ([3]; S 47445, limit of quantification 1 ng/ml): below the limit of quantification | tmax ([3]; S 47445, not changed following combination): 1.5 h | Apparent elimination half-life ([3]; mouse, in vivo): 2.1 to 3.6 h | Mean AUClast [% CV] ([3]; mouse, in vivo): 32.6 [23.0] ng h/mL | Mean Cmax [% CV] ([3]; mouse, in vivo): 8.46 [20.8] ng/mL | Median Tmax [range] ([3]; mouse, in vivo): 1.5 [1–2] h | T1/2z [% CV] ([3]; mouse, in vivo): 3.58 [66.9] h | Time after dosing at which Cmax was reached ([3]; mouse, in vivo): 1 to 4 h
